Test results as given in paper PMC8151276, “An Integrated Approach toward NanoBRET Tracers for Analysis of GPCR Ligand Engagement” (Molecules, 2021).

Target: T1, MTNR1A (Homo sapiens, UniProt P48039)
T1 construct: purchased Promega (in-house HiBiT-GPCR construct library, NanoBRET)
Experiment: NanoBRET screen HiBiT-MTNR1A in HEK293
Type: binding
Method: Each tracer candidate was screened across the entire library of HiBiT-GPCR constructs using NanoBRET as the detection modality. As depicted in Figure 4A, the specificity of interactions was evaluated through decrease in BRET due to competitive displacement of a bound tracer by excess parental compound. Each tracer was analyzed for binding to each HiBiT-GPCR fusion in the absence and in the presence of competing parental compound. Briefly, HEK293 cells were transfected with HiBiT-GPCR constructs diluted into promoterless DNA to reduce expression and maximize translocation to the cell surface. Each tracer candidate was then screened at concentrations of 1 μM and 0.1 μM across cells expressing these fusions. Cells were treated for 1.5 h with tracer either alone or in the presence of 20 μM competing parental compound (i.e., control). BRET was measured upon addition of purified LgBiT and subsequent complementation with HiBiT genetically fused to a GPCR. The specificity of interactions was assessed through a decrease in BRET signal due to competitive displacement of the bound tracer. To further gauge the robustness of these interactions, the fold response over the control (i.e., BRETtracer/BRETcontrol) was calculated. We chose a 1.5-fold response, which translates to ≥7-fold signal over noise as the minimal threshold required to score an interaction as positive.
HiBiT-GPCR DNA constructs were diluted in 10 mM Tris pH 8 to a final concentration of 0.01 μg/μL, arrayed in 96-well plates and stored at −20 °C. For transfection, HEK293 cells were suspended in Opti-MEM (without phenol red) supplemented with 2% fetal bovine serum (Seradigm) and 100 units/mL penicillin–streptomycin (Gibco) at a final concentration of 220,000 cells/mL and dispensed into white 96-well plates at 90 μL/well. Subsequent transfections and screens were carried using an Agilent Bravo Automated Liquid Handling Platform. First, the 96-well HiBiT DNA arrays were diluted 25-fold in Opti-MEM (without serum or phenol red) to a final concentration of 0.0004 μg/μL and 20 μL of the diluted DNAs were transferred into new 96-well plates. Next, promoterless carrier DNA (1 μg/μL) was diluted 25-fold (0.04 μg/μL) and then dispensed into the diluted arrays at 20 μL/well. Following brief mixing, Viafect transfection reagent (Promega) diluted 16-fold into Opti-MEM was dispensed into the plates at 40 μL/well. After mixing by pipetting, plates were incubated for 10 min on the pipetting station deck. The DNA-transfection reagent complexes were then added to plates containing cells. To facilitate the screen, 10 μL of DNA-transfection reagent complexes were added in duplicates to the top 4 and bottom 4 rows, resulting in two identical 48-well arrays per plate. Plates with transfected cells were incubated for 18–20 h at 37 °C/5% CO2. A screen of each tracer across the entire library using two different concentrations requires duplicate plates of transfected cells. Depending on the number of tracers being screened, transfections can be scaled up using the same ratios. The next day, for each tracer, four 20× screening solutions in tracer dilution buffer (Promega) were prepared: two duplicates at final concentration of 20 μM and two duplicates at a final concentration of 2 μM. […] The four resulting solutions were diluted 4-fold in Opti-MEM without serum or phenol red to generate 5× solutions (5 µM and 0.5 µM tracer +/− 100 μM competing compound). To screen the library, a BioTek MultiFlo FX liquid dispenser was used to dispense 22.5 µL of tracer solution to the top 4 rows and 22.5 µL tracer + competing compound solution to the 4 bottom rows. Plates were briefly mixed on an orbital shaker and incubated for 1.5 h at room temperature. […] Plates were briefly mixed on an orbital shaker and incubated for 15 min to allow complementation.

T1 sequence (P48039 whole entry): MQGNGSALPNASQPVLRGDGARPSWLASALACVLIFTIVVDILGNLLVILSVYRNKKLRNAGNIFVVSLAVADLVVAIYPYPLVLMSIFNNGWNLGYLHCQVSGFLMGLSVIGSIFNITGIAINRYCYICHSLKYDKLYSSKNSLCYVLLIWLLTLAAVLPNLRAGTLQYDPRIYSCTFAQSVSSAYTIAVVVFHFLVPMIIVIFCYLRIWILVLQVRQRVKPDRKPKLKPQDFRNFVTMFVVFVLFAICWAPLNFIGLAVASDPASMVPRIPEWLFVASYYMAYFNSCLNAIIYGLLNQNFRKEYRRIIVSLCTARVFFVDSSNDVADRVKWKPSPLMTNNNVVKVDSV

Compound | NanoBRET Fold Response (MTNR1A, tracer 0.1μM) | NanoBRET Fold Response (MTNR1A, tracer 1μM) | also measured
CCOC(=O)c1cc(C#N)c(N2CCC(C(=O)NS(=O)(=O)Cc3ccccc3/C=C/C(=O)NCCNC(=O)CCc3ccc4n3[B-](F)(F)[N+]3=C(c5ccc[nH]5)C=CC3=C4)CC2)nc1C [AZD1283-1-NB590] |  |  | NanoBRET Fold Response (MTNR1A, 0.1μM): 1.00; NanoBRET Fold Response (MTNR1A, 1μM): 1.00
N#CN=C(NCCCOc1cccc(CN2CCCCC2)c1)NCCNC(=O)CCOCCOCCOCCOCCNC(=O)CCc1ccc2n1[B-](F)(F)[N+]1=C(c3ccc[nH]3)C=CC1=C2 [Aminopotentidine-2-NB590] | 1.00 | 1.00 | 
CN(C)CCC=C1c2ccccc2CCc2ccc(C(=O)NCCNC(=O)CCOCCOCCOCCOCCNC(=O)CCc3ccc4n3[B-](F)(F)[N+]3=C(c5ccc[nH]5)C=CC3=C4)cc21 [Amitriptyline-b-2-NB590] | 0.96 | 0.98 | 
COc1ccc2c(n1)c(CCNC(C)=O)cn2CCNC(=O)CCc1ccc2n1[B-](F)(F)[N+]1=C(c3ccc[nH]3)C=CC1=C2 [Azamelatonin-1-NB590] |  |  | NanoBRET Fold Response (0.1μM tracer): 1.12; NanoBRET Fold Response (1μM tracer): 1.55
COc1ccc2[nH]c(-c3ccc(CNC(=O)CCOCCOCCOCCOCCNC(=O)CCc4ccc5n4[B-](F)(F)[N+]4=C(c6ccc[nH]6)C=CC4=C5)cc3)c(CCNC(C)=O)c2n1 [AzomelatoninICO9-2-NB590] |  |  | NanoBRET Fold Response (0.1μM tracer): 1.06; NanoBRET Fold Response (1μM tracer): 1.42
O=C(CCOCCOCCOCCOCCNC(=O)CCc1ccc2n1[B-](F)(F)[N+]1=C(c3ccc[nH]3)C=CC1=C2)NCCCN1CCN(C2=Nc3cc(Cl)ccc3Nc3ccccc32)CC1 [Clozapine-a-2-NB590] |  |  | NanoBRET Fold Response (MTNR1A, 0.1μM tracer): 1.03; NanoBRET Fold Response (MTNR1A, 1μM tracer): 1.00
CN1CCN(C2=Nc3cc(Cl)ccc3Nc3ccc(CNC(=O)CCOCCOCCOCCOCCNC(=O)CCc4ccc5n4[B-](F)(F)[N+]4=C(c6ccc[nH]6)C=CC4=C5)cc32)CC1 [Clozapine-b-2-NB590] |  |  | NanoBRET Fold Response (MTNR1A, 1μM tracer): 1.02
CN1CCN(C2=Nc3cc(Cl)ccc3N(CC(=O)NCCOCCOCCOCCOCCNC(=O)CCc3ccc4n3[B-](F)(F)[N+]3=C(c5ccc[nH]5)C=CC3=C4)c3ccccc32)CC1 [Clozapine-c-2-NB590] |  |  | NanoBRET Fold Response (MTNR1A, 0.1μM tracer): 0.97; NanoBRET Fold Response (MTNR1A, 1μM tracer): 1.07
O=C(CCOCCOCCOCCOCCNC(=O)CCc1ccc2n1[B-](F)(F)[N+]1=C(c3ccc[nH]3)C=CC1=C2)NCCCN1CCN(C2=Nc3ccccc3Oc3ccc(Cl)cc32)CC1 [Loxapine-a-2-NB590] | 0.92 | 1.12 | 
COc1ccccc1N1CCN(CCCCN2C(=O)c3ccc(CNC(=O)CCOCCOCCOCCOCCNC(=O)CCc4ccc5n4[B-](F)(F)[N+]4=C(c6ccc[nH]6)C=CC4=C5)cc3C2=O)CC1 [NAN-190-2-NB590] | 0.99 | 0.97 | 
COc1ccccc1N1CCN(CCCCN2C(=O)c3ccc(CNC(=O)CCOCCNC(=O)c4ccc(CNC(=O)CCc5ccc6n5[B-](F)(F)[N+]5=C(c7ccc[nH]7)C=CC5=C6)cc4)cc3C2=O)CC1 [NAN-190-3-NB590] | 1.01 | 0.80 | 
O=C(CCc1ccc2n1[B-](F)(F)[N+]1=C(c3ccc[nH]3)C=CC1=C2)NCc1ccc(C(=O)NCCOCCC(=O)N[C@@H]2CC[C@@]3(O)[C@H]4Cc5ccc(O)c6c5[C@@]3(CCN4CC3CC3)[C@H]2O6)cc1 [Naltrexone-3-NB590] | 0.76 | 1.18 | 
Cc1cc2c(s1)Nc1ccccc1N=C2N1CCN(CCCNC(=O)CCOCCOCCOCCOCCNC(=O)CCc2ccc3n2[B-](F)(F)[N+]2=C(c4ccc[nH]4)C=CC2=C3)CC1 [Olanzapine-a-2-NB590] | 1.01 | 1.07 | 
O=C(CCc1ccc2n1[B-](F)(F)[N+]1=C(c3ccc[nH]3)C=CC1=C2)NCc1ccc(C(=O)NCCOCCOCCNCC(O)COc2cccc3ccccc23)cc1 (stereo not shown) [Propranolol-3-NB590] |  |  | NanoBRET Fold Response (MTNR1A, 0.1μM): 0.98; NanoBRET Fold Response (MTNR1A, 1μM): 0.94
O=C(CCc1ccc2n1[B-](F)(F)[N+]1=C(c3ccc[nH]3)C=CC1=C2)NCCOCCOCCNC(=O)OCCOCCN1CCN(C2=Nc3ccccc3Sc3ccccc32)CC1 [Quetiapine-a-2-NB590] | 1.00 | 1.05 | 
Cc1nc2n(c(=O)c1CCN1CCC(c3noc4cc(F)ccc34)CC1)CCCC2OC(=O)NCCOCCOCCOCCOCCNC(=O)CCc1ccc2n1[B-](F)(F)[N+]1=C(c3ccc[nH]3)C=CC1=C2 (stereo not shown) [Risperidone-2-NB590] | 0.97 | 0.93 | 
CC(C)N(CC[C@H](c1ccccc1)c1cc(CCNC(=O)CCOCCOCCOCCOCCNC(=O)CCc2ccc3n2[B-](F)(F)[N+]2=C(c4ccc[nH]4)C=CC2=C3)ccc1O)C(C)C [Tolterodine-2-NB590] | 1.07 | 0.79 | 
CC(C)N(CC[C@H](c1ccccc1)c1cc(CCNC(=O)c2ccc(CNC(=O)CCc3ccc4n3[B-](F)(F)[N+]3=C(c5ccc[nH]5)C=CC3=C4)cc2)ccc1O)C(C)C [Tolterodine-BZ-NB590] | 0.97 | 1.03 | 
CCCn1c(=O)c2[nH]c(-c3ccc(OCC(=O)NCCNC(=O)CCOCCNC(=O)c4ccc(CNC(=O)CCc5ccc6n5[B-](F)(F)[N+]5=C(c7ccc[nH]7)C=CC5=C6)cc4)cc3)nc2n(CCC)c1=O [XAC-3-NB590] | 1.02 | 1.01 | 
